# Patent publication US10639306B2, “Aldose reductase inhibitors and uses thereof” (The Trustees of Columbia University in the City of New York, priority 2010, dated 2020)
# Where two headings read alike, the source gives them in different places.
# Tests used:
# [1] = format: physicochemical; conditions: for Area (integration of absorbance peak): 3 min, pH 7.1
# Method: Each sample of Compound A & zopolrestat were placed, separately, in water (MQW ultra nanopure) at ambient temperature and vortexed for 3 minutes. The aliquots were then filtered through a tightly-packed cotton plug (placed in a pipette) to remove any residual solids. The attempted concentrations of the respective solutions of Compound A and zopolrestat made were 0.05 mg/mL, 0.1 mg/mL, 0.5 mg/mL, 1.0 mg/mL, 5.0 mg/mL, and 10.0 mg/mL. The pH of the water used was 7.1 (measured electronically by an Orion perpHect LogR Meter Model #370).
# The filtered samples were run through a binary gradient (program: 5%-100% MeCN over 30 mins) on a LC-MS (Shimadzu LCMS-2010A Liquid Chromatography Mass Spectrometer, reverse-phase column). A 5 μL volume of each sample solution was injected for each run. Each trace contained a peak (for Compound A, TR approx. 14.070 mins; for zopolrestat, TR approx. 16.666 mins) measured at a wavelength of 254 nm for which the respective parent ion masses were observed.
# By comparing the absorbance areas under the peaks corresponding to Compound A & zopolrestat in each water solution made (Table 1), a solubility curve for each compound was generated (FIG. 1).
# [2] = Solubility in Krebs-Henseleit buffer; format: physicochemical; conditions: Krebs-Henseleit buffer with glucose, palmitate, bovine serum albumin, insulin
# [3] = biological target: human recombinant aldose reductase (Homo sapiens, UniProt P15121); assay: biochemical
# Method: The reductase activity of Compound A and zopolrestat were spectrophotometrically assayed by following the decrease of NADPH at 25° C. for 4 min as described in Sato, S. (1992), “Rat kidney aldose reductase and aldehyde reductase and polyolproduction in rat kidney” Am. J. Physiol. 263, F799.F805, incorporated by reference herein in its entirety.
# Briefly, the reaction mixture (total volume 1 ml) contained 0.1 mM NADPH, 100 mM substrate (DL-glyceraldehyde or L-xylose) and human recombinant aldose reductase (100 mU) in 0.1 M phosphate buffer, pH 6.2. The head to head experiment was carried out in a microplate assay for AR inhibition using D-Glyceraldehyde and NADPH and the absorbance changes were monitored at 340 nm and % inhibition was calculated for ARIs at concentrations ranging from 0.1 nM to 100 μM (Table 2 and FIG. 2). Data is presented as mean±standard deviation and is an average of 5 separate runs. The reaction was started by adding the substrate (glyceraldehyde or xylose) as well as the same reaction mixture in which the substrate replaced by deionized water was used as a control. One enzyme unit (U) was defined as the activity consuming 1 μmole of NADPH per min at 25° C.
melting point [°C],Structure (SMILES),Solubility in pH 7.1 water relative to Zopolrestat [1],Area (integration of absorbance peak) ([1]; 0.05 mg/mL),Area (integration of absorbance peak) ([1]; 0.1 mg/mL),Area (integration of absorbance peak) ([1]; 0.5 mg/mL),Area (integration of absorbance peak) ([1]; 1 mg/mL),Area (integration of absorbance peak) ([1]; 5 mg/mL),Area (integration of absorbance peak) ([1]; 10 mg/mL),Solubility in Krebs-Henseleit buffer [2],IC50 [3] [nM],Activity relative to zopolrestat in vitro against aldose reductase ([3]; fold more active than zopolrestat),inhibition at 1 pM [3] [%],inhibition at 10 pM [3] [%]
196 to 197,O=C(O)Cc1nn(Cc2nc3cc(Cl)ccc3s2)c(=O)c2nccnc12,,,,,,,,,,,,
,"O=C(O)Cc1nn(Cc2nc3cc(C(F)(F)F)ccc3s2)c(=O)c2nccnc12 [Compound A, 2-(8-oxo-7-((5-(trifluoromethyl)benzo[d]thiazol-2-yl)methyl)-7,8-dihydropyrazino[2,3-d]pyridazin-5-yl)acetic acid]",significantly greater solubility,1811131,3221003,5814304,10515430,17216187,20397336,soluble without any precipitation or turbidity,0.0289,approximately 100 ×,,
,"O=C(O)Cc1nn(Cc2nc3cc(C(F)(F)F)ccc3s2)c(=O)c2ccccc12 [zopolrestat, reference compound]",,1039247,1899466,4304556,6129559,13314544,13362465,heat was applied to render zopolrestat soluble,,,11,29
